Source: PubChem BioAssay (NCI)
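Growth conditions: 96-well plates. Treatment: test compound, 48 hours, 5 concentrations. Analysis: linear interpolation between bracketing concentrations; unreached endpoints set to highest concentration. TGI is the concentration that stops growth completely.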

Tests used:
Assay in all cases: growth of human tumour cells (NCI), 48 h
786-0 renal = test system: 786-0 renal
A498 renal = test system: A498 renal
A549 NSCLC = test system: A549 NSCLC
ACHN renal = test system: ACHN renal
BT-549 breast = test system: BT-549 breast
CAKI-1 renal = test system: CAKI-1 renal
CCRF-CEM leukemia = test system: CCRF-CEM leukemia
COLO 205 colon = test system: COLO 205 colon
DU-145 prostate = test system: DU-145 prostate
EKVX NSCLC = test system: EKVX NSCLC
HCC-2998 colon = test system: HCC-2998 colon
HCT-116 colon = test system: HCT-116 colon
HCT-15 colon = test system: HCT-15 colon
HL-60(TB) leukemia = test system: HL-60(TB) leukemia
HOP-62 NSCLC = test system: HOP-62 NSCLC
HOP-92 NSCLC = test system: HOP-92 NSCLC
HS 578T breast = test system: HS 578T breast
HT29 colon = test system: HT29 colon
IGROV1 ovarian = test system: IGROV1 ovarian
K-562 leukemia = test system: K-562 leukemia
KM12 colon = test system: KM12 colon
LOX IMVI melanoma = test system: LOX IMVI melanoma
M14 melanoma = test system: M14 melanoma
MALME-3M melanoma = test system: MALME-3M melanoma
MCF7 breast = test system: MCF7 breast
MDA-MB-231 breast = test system: MDA-MB-231 breast
MDA-MB-435 = test system: MDA-MB-435
MDA-N = test system: MDA-N
MOLT-4 leukemia = test system: MOLT-4 leukemia
NCI-H226 lung = test system: NCI-H226 lung
NCI-H23 lung = test system: NCI-H23 lung
NCI-H460 lung = test system: NCI-H460 lung
NCI-H522 lung = test system: NCI-H522 lung
NCI/ADR-RES ovarian = test system: NCI/ADR-RES ovarian
OVCAR-3 ovarian = test system: OVCAR-3 ovarian
OVCAR-4 ovarian = test system: OVCAR-4 ovarian
OVCAR-5 ovarian = test system: OVCAR-5 ovarian
OVCAR-8 ovarian = test system: OVCAR-8 ovarian
PC-3 prostate = test system: PC-3 prostate
RPMI-8226 leukemia = test system: RPMI-8226 leukemia
RXF 393 renal = test system: RXF 393 renal
SF-268 CNS = test system: SF-268 CNS
SF-295 CNS = test system: SF-295 CNS
SK-MEL-28 melanoma = test system: SK-MEL-28 melanoma
SK-MEL-5 melanoma = test system: SK-MEL-5 melanoma
SK-OV-3 ovarian = test system: SK-OV-3 ovarian
SN12C renal = test system: SN12C renal
SNB-19 CNS = test system: SNB-19 CNS
SNB-75 CNS = test system: SNB-75 CNS
SW-620 colon = test system: SW-620 colon
T-47D breast = test system: T-47D breast
TK-10 renal = test system: TK-10 renal
U251 CNS = test system: U251 CNS
UACC-257 melanoma = test system: UACC-257 melanoma
UACC-62 melanoma = test system: UACC-62 melanoma
UO-31 renal = test system: UO-31 renal
SF-539 CNS = test system: SF-539 CNS
SK-MEL-2 melanoma = test system: SK-MEL-2 melanoma
SR leukemia = test system: SR leukemia

How did the TGI (786-0 renal) turn out when `Cc1cc(C)nc(SCCc2cccc[n+]2C)n1` was run?
The TGI was > 100 µM.

What about the TGI (A498 renal) of the same molecule?
Its TGI is > 100 µM.

What about the TGI (A549 NSCLC) of the same molecule?
Its TGI is > 100 µM.

And the TGI (ACHN renal)?
The TGI was > 100 µM.

What about the TGI (BT-549 breast) of the same molecule?
Its TGI is > 100 µM.

What about the TGI (CAKI-1 renal) of the same molecule?
The TGI was > 100 µM.

What about the TGI (CCRF-CEM leukemia) of the same molecule?
The TGI was > 100 µM.

And the TGI (COLO 205 colon)?
Its TGI is > 100 µM.

What about the TGI (DU-145 prostate) of the same molecule?
The TGI was > 100 µM.

What about the TGI (EKVX NSCLC) of the same molecule?
Its TGI is > 100 µM.

What about the TGI (HCC-2998 colon) of the same molecule?
Its TGI is > 100 µM.

And the TGI (HCT-116 colon)?
Its TGI is > 100 µM.

And the TGI (HCT-15 colon)?
The TGI was > 100 µM.

And the TGI (HL-60(TB) leukemia)?
Its TGI is > 100 µM.

What about the TGI (HOP-62 NSCLC) of the same molecule?
The TGI was > 100 µM.

And the TGI (HOP-92 NSCLC)?
The TGI was > 100 µM.

And the TGI (HS 578T breast)?
Its TGI is > 100 µM.

What about the TGI (HT29 colon) of the same molecule?
The TGI was > 100 µM.

What about the TGI (IGROV1 ovarian) of the same molecule?
Its TGI is > 100 µM.

What about the TGI (K-562 leukemia) of the same molecule?
The TGI was > 100 µM.

And the TGI (KM12 colon)?
Its TGI is > 100 µM.

And the TGI (LOX IMVI melanoma)?
The TGI was > 100 µM.

What about the TGI (M14 melanoma) of the same molecule?
The TGI was > 100 µM.

What about the TGI (MALME-3M melanoma) of the same molecule?
The TGI was > 100 µM.

What about the TGI (MCF7 breast) of the same molecule?
The TGI was > 100 µM.

What about the TGI (MDA-MB-231 breast) of the same molecule?
Its TGI is > 100 µM.

What about the TGI (MDA-MB-435) of the same molecule?
The TGI was > 100 µM.

What about the TGI (MDA-N) of the same molecule?
The TGI was > 100 µM.

And the TGI (MOLT-4 leukemia)?
Its TGI is > 100 µM.

And the TGI (NCI-H226 lung)?
Its TGI is > 100 µM.

What about the TGI (NCI-H23 lung) of the same molecule?
The TGI was > 100 µM.

And the TGI (NCI-H460 lung)?
The TGI was > 100 µM.

And the TGI (NCI-H522 lung)?
The TGI was > 100 µM.

And the TGI (NCI/ADR-RES ovarian)?
Its TGI is > 100 µM.

And the TGI (OVCAR-3 ovarian)?
The TGI was > 100 µM.

What about the TGI (OVCAR-4 ovarian) of the same molecule?
The TGI was > 100 µM.

What about the TGI (OVCAR-5 ovarian) of the same molecule?
Its TGI is > 100 µM.

What about the TGI (OVCAR-8 ovarian) of the same molecule?
The TGI was > 100 µM.

What about the TGI (PC-3 prostate) of the same molecule?
Its TGI is > 100 µM.

What about the TGI (RPMI-8226 leukemia) of the same molecule?
Its TGI is > 100 µM.

And the TGI (RXF 393 renal)?
Its TGI is > 100 µM.

What about the TGI (SF-268 CNS) of the same molecule?
Its TGI is > 100 µM.

What about the TGI (SF-295 CNS) of the same molecule?
The TGI was > 100 µM.

And the TGI (SK-MEL-28 melanoma)?
Its TGI is > 100 µM.

What about the TGI (SK-MEL-5 melanoma) of the same molecule?
Its TGI is > 100 µM.

And the TGI (SK-OV-3 ovarian)?
Its TGI is > 100 µM.

And the TGI (SN12C renal)?
Its TGI is > 100 µM.

And the TGI (SNB-19 CNS)?
The TGI was > 100 µM.

What about the TGI (SNB-75 CNS) of the same molecule?
The TGI was > 100 µM.

And the TGI (SW-620 colon)?
The TGI was > 100 µM.

And the TGI (T-47D breast)?
The TGI was > 100 µM.

And the TGI (TK-10 renal)?
Its TGI is > 100 µM.

What about the TGI (U251 CNS) of the same molecule?
The TGI was > 100 µM.

What about the TGI (UACC-257 melanoma) of the same molecule?
Its TGI is > 100 µM.

And the TGI (UACC-62 melanoma)?
Its TGI is > 100 µM.

What about the TGI (UO-31 renal) of the same molecule?
Its TGI is > 100 µM.

`O=[N+]([O-])c1cc(Cl)cc2cc(Br)cnc12` was tested. Which TGI (786-0 renal) did it give?
The TGI was > 31.6 µM.

And the TGI (A498 renal)?
Its TGI is > 31.6 µM.

What about the TGI (A549 NSCLC) of the same molecule?
The TGI was > 31.6 µM.

And the TGI (ACHN renal)?
The TGI was > 31.6 µM.

And the TGI (BT-549 breast)?
The TGI was > 31.6 µM.

What about the TGI (CCRF-CEM leukemia) of the same molecule?
Its TGI is > 31.6 µM.

What about the TGI (COLO 205 colon) of the same molecule?
The TGI was > 31.6 µM.

What about the TGI (DU-145 prostate) of the same molecule?
The TGI was > 31.6 µM.

What about the TGI (EKVX NSCLC) of the same molecule?
The TGI was > 31.6 µM.

What about the TGI (HCC-2998 colon) of the same molecule?
The TGI was > 31.6 µM.

What about the TGI (HCT-116 colon) of the same molecule?
The TGI was > 31.6 µM.

What about the TGI (HCT-15 colon) of the same molecule?
The TGI was > 31.6 µM.

And the TGI (HL-60(TB) leukemia)?
The TGI was > 31.6 µM.

And the TGI (HOP-62 NSCLC)?
Its TGI is > 31.6 µM.

What about the TGI (HOP-92 NSCLC) of the same molecule?
Its TGI is > 23.5 µM.

What about the TGI (HS 578T breast) of the same molecule?
Its TGI is 28.3 µM.

What about the TGI (HT29 colon) of the same molecule?
Its TGI is > 31.6 µM.

And the TGI (IGROV1 ovarian)?
The TGI was > 23.7 µM.

And the TGI (K-562 leukemia)?
The TGI was > 31.6 µM.

What about the TGI (LOX IMVI melanoma) of the same molecule?
Its TGI is > 31.6 µM.

And the TGI (M14 melanoma)?
The TGI was > 31.6 µM.

What about the TGI (MALME-3M melanoma) of the same molecule?
Its TGI is > 31.6 µM.

What about the TGI (MCF7 breast) of the same molecule?
The TGI was > 31.6 µM.

What about the TGI (MDA-MB-231 breast) of the same molecule?
The TGI was > 31.6 µM.

What about the TGI (MDA-MB-435) of the same molecule?
The TGI was > 31.6 µM.

And the TGI (MDA-N)?
Its TGI is > 31.6 µM.

What about the TGI (MOLT-4 leukemia) of the same molecule?
The TGI was > 31.6 µM.

What about the TGI (NCI-H226 lung) of the same molecule?
The TGI was > 31.6 µM.

What about the TGI (NCI-H23 lung) of the same molecule?
The TGI was > 31.6 µM.

And the TGI (NCI-H460 lung)?
Its TGI is > 31.6 µM.

What about the TGI (NCI-H522 lung) of the same molecule?
Its TGI is > 31.6 µM.

And the TGI (NCI/ADR-RES ovarian)?
The TGI was > 31.6 µM.

And the TGI (OVCAR-3 ovarian)?
The TGI was > 31.6 µM.

What about the TGI (OVCAR-4 ovarian) of the same molecule?
The TGI was > 31.6 µM.

And the TGI (OVCAR-5 ovarian)?
Its TGI is > 31.6 µM.

What about the TGI (OVCAR-8 ovarian) of the same molecule?
Its TGI is > 31.6 µM.

And the TGI (PC-3 prostate)?
The TGI was > 31.6 µM.

What about the TGI (RPMI-8226 leukemia) of the same molecule?
The TGI was > 31.6 µM.

And the TGI (RXF 393 renal)?
Its TGI is > 31.6 µM.

What about the TGI (SF-295 CNS) of the same molecule?
The TGI was > 31.6 µM.

What about the TGI (SF-539 CNS) of the same molecule?
Its TGI is > 31.6 µM.

What about the TGI (SK-MEL-2 melanoma) of the same molecule?
Its TGI is > 100 µM.

What about the TGI (SK-MEL-28 melanoma) of the same molecule?
Its TGI is > 31.6 µM.

And the TGI (SK-MEL-5 melanoma)?
Its TGI is > 31.6 µM.

What about the TGI (SN12C renal) of the same molecule?
Its TGI is > 31.6 µM.

What about the TGI (SNB-19 CNS) of the same molecule?
The TGI was > 31.6 µM.

What about the TGI (SNB-75 CNS) of the same molecule?
The TGI was > 31.6 µM.

And the TGI (SR leukemia)?
Its TGI is > 31.6 µM.

What about the TGI (SW-620 colon) of the same molecule?
The TGI was > 31.6 µM.

And the TGI (T-47D breast)?
Its TGI is > 31.6 µM.

What about the TGI (TK-10 renal) of the same molecule?
The TGI was > 31.6 µM.

What about the TGI (U251 CNS) of the same molecule?
The TGI was > 31.6 µM.

And the TGI (UACC-257 melanoma)?
The TGI was > 31.6 µM.

What about the TGI (UACC-62 melanoma) of the same molecule?
Its TGI is > 31.6 µM.

And the TGI (UO-31 renal)?
The TGI was > 31.6 µM.
